In data set [1] the target is T1, FUS^RGG3PY (Homo sapiens, UniProt P35637).
T1 construct: RGG3-PY region, residues 454-526, unmethylated; His6-protein A tag cut by TEV; E. coli BL21(DE3) Star
T1 sequence (P35637 454-526): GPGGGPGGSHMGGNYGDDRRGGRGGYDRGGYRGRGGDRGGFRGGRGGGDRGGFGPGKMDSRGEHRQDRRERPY
The experiment in a line: 1H-15N HSQC NMR titration (CSP). Conditions: no RNA; EGCG 10-500 µM; 30 µM protein; pH 6.0, 150 mM NaCl, 25 °C; several sites, non-specific. In kind it is binding.

Data set [2] concerns the target FUS RGG3PY (UniProt P35637 454-526). Kind of data set: NMR 1H-15N HSQC titration; 30 uM protein, 0-7.5 uM RNA; unmethylated; CSPs lower than methylated at 4:1, line broadening; 50 mM sodium succinate pH 6.0, 150 mM NaCl, 2 mM TCEP, 0.04% NaN3, 10% D2O, 25 C. Conditions: protein: recombinant; tags: His6-protein A tag removed by TEV.

Regarding `O=C(O[C@@H]1Cc2c(O)cc(O)cc2O[C@@H]1c1cc(O)c(O)c(O)c1)c1cc(O)c(O)c(O)c1` [EGCG], the “1H-15N HSQC NMR titration (CSP)” value in data set [1] was “EGCG can directly interact with the RGG3-PY region of FUS”.

B1: (UG)12 RNA (ssRNA)
RNA: UGUGUGUGUGUGUGUGUGUGUGUG
Consider B1, for which the binding result in data set [2] was “binds”.

These data come from PMC8870583, “EGCG Promotes FUS Condensate Formation in a Methylation-Dependent Manner” (Cells, 2022).
